Patent US8685982B2, “Thioamide, amidoxime and amidrazone derivatives as HIV attachment inhibitors” (priority 2011, dated 2014)
Where two headings read alike, the source gives them in different places.

System: HIV-1 LAI envelope single-round infectious reporter virus
Assay: Single-round infectious HIV-1 LAI luciferase reporter virus infection of MT2 cells
Format: cell-based
Conditions: Human immunodeficiency virus 1, MT2, 72 h
Description: Virus Production • Human embryonic Kidney cell line, 293T (HEK 293T), was propagated in Dulbecco's Modified Eagle Medium (Invitrogen, Carlsbad, Calif.) containing 10% fetal bovine serum (FBS, Sigma, St. Louis, Mo.). The human T-cell leukemia cell MT2 (AIDS Research and Reference Reagent Program, Cat. 237) was propagated in RPMI 1640 (Invitrogen, Carlsbad, Calif.) containing 10% fetal bovine serum (FBS, Hyclone, Logan, Utah)
Virus Infection • Single-round infectious reporter virus was produced by co-transfecting HEK 293T cells with plasmide expressing the HIV-1 LAI envelope along with a plasmid containing an HIV-1 LAI proviral cDNA with the envelope gene replaced by a firefly luciferase reporter gene (Chen et al., Ref 41). Transfections were performed using lipofectAMINE PLUS reagent as described by the manufacturer (Invitrogen, Carlsbad, Calif.). Experimental Procedure • 1. MT2 cells were plated in black, 384 well plates at a cell density of 5×10^3 cells per well in 25 μl RPMI 1640 containing 10% FBS. • 2. Compound (diluted in dimethylsulfoxide and growth medium) was added to cells at 12.5 μl/well, so that the final assay concentration would be ≦50 nM. • 3. 12.5 μl of single-round infectious reporter virus in Dulbecco's Modified Eagle Medium was added to the plated cells and compound at an approximate multiplicity of infection (MOI) of 0.01, resulting in a final volume of 50 μl per well. • 4. Virus-infected cells were incubated at 37 degrees Celsius in a CO2 incubator and harvested 72 h after infection. • 5. Viral infection was monitored by measuring luciferase expression in the infected cells using a luciferase reporter gene assay kit (Steady-Glo, Promega, Madison, Wis.) as described by the manufacturer. Luciferase activity was then quantified by measuring luminescence using an EnVision Multilabel Plate Readers (PerkinElmer, Waltham, Mass.). • 6. The percent inhibition for each compound was calculated by quantifying the level of luciferase expression in cells infected in the presence of each compound as a percentage of that observed for cells infected in the absence of compound and subtracting such a determined value from 100. • 7. An EC50 provides a method for comparing the antiviral potency of the compounds of this disclosure. The effective concentration for fifty percent inhibition (EC50) was calculated with the Microsoft Excel Xlfit curve fitting software. For each compound, curves were generated from percent inhibition calculated at 10 different concentrations by using a four parameter logistic model (model 205). Table 1 is the key for the data in Table 2.

[1] = read-out: EC50 Group from Table 1

Compound	EC50 [1]	EC50
CN(C)c1ccc(C(=S)N2CCN(C(=O)C(=O)c3c[nH]c4cccc(F)c34)CC2)cc1 [Compound 1001]	> 500 nM	
CN(C)N=C(c1ccccc1)N1CCN(C(=O)C(=O)c2c[nH]c3c(-n4ccnn4)ncc(F)c23)CC1 [Compound 1003]	< 500 nM	
O=C(C(=O)N1CCN(C(=S)c2ccccc2)CC1)c1c[nH]c2c(-n3ccnn3)ncc(F)c12 [Compound 2001, 1-(4-fluoro-7-(1H-1,2,3-triazol-1-yl)-1H-pyrrolo[2,3-c]pyridin-3-yl)-2-(4-(phenylcarbonothioyl)piperazin-1-yl)ethane-1,2-dione]	< 500 nM	0.027 nM
CON=C(c1ccccc1)N1CCN(C(=O)C(=O)c2c[nH]c3c(-n4ccnn4)ncc(F)c23)CC1 [Compound 2002, 1-(4-fluoro-7-(1H-1,2,3-triazol-1-yl)-1H-pyrrolo[2,3-c]pyridin-3-yl)-2-(4-((methoxyimino)(phenyl)methyl)piperazin-1-yl)ethane-1,2-dione]	< 500 nM	
CON=C(c1ccccc1)N1CCN(C(=O)C(=O)c2c[nH]c3c(-n4cnc(C)n4)ncc(OC)c23)CC1 [Compound 2004, 1-(4-methoxy-7-(3-methyl-1H-1,2,4-triazol-1-yl)-1H-pyrrolo[2,3-c]pyridin-3-yl)-2-(4-((methoxyimino)(phenyl)methyl)piperazin-1-yl)ethane-1,2-dione]	< 500 nM	0.019 nM
O=C(C(=O)N1CCN(C(=NO)c2ccccc2)CC1)c1c[nH]c2c(-n3ccnn3)ncc(F)c12 [Compound 2005, 1-(4-fluoro-7-(1H-1,2,3-triazol-1-yl)-1H-pyrrolo[2,3-c]pyridin-3-yl)-2-(4-((hydroxyimino)(phenyl)methyl)piperazin-1-yl)ethane-1,2-dione]	< 500 nM	0.121 nM
